For one series, the system named is Multiple Myeloma. The experiment in a line: Day-100 re-staging (IMWG uniform response criteria) of newly diagnosed MM patients on thalidomide-based regimens. Type of series: in vivo, human. As for the experimental part:
Serum samples from 51 consecutive newly diagnosed MM patients who were having initial treatment with thalidomide-based regimens were analyzed. Samples were obtained at diagnosis and prior to commencement of therapy. The samples were collected according to standard phlebotomy procedures from consented patients. Ethical consent was granted from the Mater Misericordiae University Hospital, Dublin, Ireland ethics committee. 10 ml of blood sample was collected into additive free blood tubes and was allowed to clot for 30 minutes to 1 hour at room temperature. Samples were coded and transported on ice to the laboratory. The serum was denuded by pipette from the clot and place into a clean tube. The tubes were centrifuged at 400 relative centrifugal force (rcf) for 30 minutes at 4° C. Serum was aliquoted in the cryovial tubes, labeled and stored at −80° C. until time of analysis. The time from sample procurement to storage at −80° C. was less than 3 hours. Each serum sample underwent no more than 3 freeze/thaw cycles prior to analysis.
The mean age of the patient group was 68 SD+/−6.95 years (range 52-81 years); 27 were male and 24 female. Based on Day-100 re-staging investigations and using the International Myeloma Working Group (IMWG) uniform response criteria (Rajkumar S V, Buadi F. Multiple myeloma: new staging systems for diagnosis, prognosis and response evaluation. Best Pract Res Clin Haematol. 2007; 20:665-680; Durie B G, Harousseau J L, Miguel J S, et al. International uniform response criteria for multiple myeloma. Leukemia. 2006;20:1467-1473) for MM, 29 responders and 22 non-responders to thalidomide-based therapy were identified. The mean age was 66 SD+/−6.80 years (range, 52-81 years) for responders and 70 SD+/−6.69 years (range, 57-79 years) for non-responders. Based on the ISS classification (Hotta T. [Classification, staging and prognostic indices for multiple myeloma]. Nippon Rinsho. 2007; 65:2161-2166), 6 responding patients had stage I, 15 had stage II and 8 had stage III disease. […] had stage I, 11 had stage II and 9 had stage III disease. In the responders group, 24 patients were treated with thalidomide and dexamethasone (TD), 3 with thalidomide, cyclophosphamide and dexamethasone (CTD) and 2 with melphalan, prednisone and thalidomide (MPT). In the non-responder group, 17 patients received TD, 4 received CTD and 1 patient received MPT. Median follow-up was 13 months (range, 6-21 months). In the responder group, 9 patients achieved complete response (CR) and 20 achieved very good partial response (VGPR). Five non-responders had Stable disease (SD) and the remaining 17 had Progressive disease (PD) (Table I).

The conditions of series [1]: use in myeloma; cited from earlier work.
Where [2] appears, read: 51 newly diagnosed MM patients, Day-100 re-staging, IMWG criteria.

Take `O=C1CCC(N2C(=O)c3ccccc3C2=O)C(=O)N1` (stereo not drawn) [thalidomide, 2-(2,6-dioxopiperidin-3-yl)-1H-isoindole-1,3(2H)-dione]: in the series with Multiple Myeloma (setting [2]), the “number of non-responders (SD or PD)” value was 22 patients and the “number of responders (CR or VGPR)” value came out at 29 patients. Besides, in the series with Multiple Myeloma (non-responder group, n=22), the “patients with Progressive disease (PD)” value is listed as 17 patients. In the series on Multiple Myeloma (responder group, n=29), the “patients achieving complete response (CR)” value is recorded as 9 patients and the “patients achieving very good partial response (VGPR)” value came to 20 patients. Further, in series [1], the serious side effects entry was “thrombo-embolic disease and peripheral neuropathy”.

(Values after US20120214710A1, “METHOD OF PREDICTING RESPONSE TO THALIDOMIDE IN MULTIPLE MYELOMA PATIENTS” (Dublin City University, priority 2009, published 2012).)
